Assay results: ChEMBL document CHEMBL1142949, “Dicarba analogues of the cyclic enkephalin peptides H-Tyr-c[D-Cys-Gly-Phe-D(or L)-Cys]NH(2) retain high opioid activity” (J Med Chem, 2007); call rule not given here

Tests used:
Mu-type opioid receptor [1] = molecular target: Mu-type opioid receptor (Rattus norvegicus, UniProt P33535); assay: Displacement of [3H]DAMGO from rat brain mu opioid receptor
[2] = molecular target: Delta-type opioid receptor (Rattus norvegicus, UniProt P33533); assay: Displacement of [3H]DSLET from rat brain delta opioid receptor
Sequence of Delta-type opioid receptor (Rattus norvegicus, UniProt P33533) (P33533 whole entry): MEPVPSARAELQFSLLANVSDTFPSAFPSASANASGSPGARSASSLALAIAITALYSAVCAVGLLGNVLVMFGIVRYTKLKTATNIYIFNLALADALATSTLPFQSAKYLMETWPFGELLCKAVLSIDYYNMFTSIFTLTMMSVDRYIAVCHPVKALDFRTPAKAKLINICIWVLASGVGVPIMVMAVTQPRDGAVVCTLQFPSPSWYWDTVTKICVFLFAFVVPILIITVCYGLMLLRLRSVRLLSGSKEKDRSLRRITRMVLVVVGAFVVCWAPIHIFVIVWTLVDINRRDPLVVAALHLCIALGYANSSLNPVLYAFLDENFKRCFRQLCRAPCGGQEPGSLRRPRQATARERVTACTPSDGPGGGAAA

[3] = molecular target: Kappa-type opioid receptor (Cavia porcellus, UniProt P41144); assay: Displacement of [3H]U-69593 from guinea pig brain kappa opioid receptor
Sequence of Kappa-type opioid receptor (P41144 whole entry): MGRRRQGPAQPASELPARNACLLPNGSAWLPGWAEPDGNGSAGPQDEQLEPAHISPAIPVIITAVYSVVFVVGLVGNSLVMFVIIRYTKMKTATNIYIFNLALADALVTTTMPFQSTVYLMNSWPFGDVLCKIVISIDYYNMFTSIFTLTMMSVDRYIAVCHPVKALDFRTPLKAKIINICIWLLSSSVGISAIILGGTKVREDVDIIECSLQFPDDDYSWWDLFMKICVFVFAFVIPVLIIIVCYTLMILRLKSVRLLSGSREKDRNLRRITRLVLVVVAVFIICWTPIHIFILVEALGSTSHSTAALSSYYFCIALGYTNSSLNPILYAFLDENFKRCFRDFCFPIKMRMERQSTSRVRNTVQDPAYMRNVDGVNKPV

Mu-type opioid receptor [4] = molecular target: Mu-type opioid receptor (Cavia porcellus, UniProt P97266); assay: Agonist activity at mu opioid receptor in guinea pig ileum; format: functional, tissue-based
Sequence of Mu-type opioid receptor (Cavia porcellus, UniProt P97266) (P97266 whole entry): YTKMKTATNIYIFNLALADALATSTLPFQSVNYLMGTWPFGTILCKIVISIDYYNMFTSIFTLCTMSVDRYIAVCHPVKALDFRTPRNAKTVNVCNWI

[5] = molecular target: Delta-type opioid receptor (Mus musculus, UniProt P32300); assay: Agonist activity at delta opioid receptor in mouse vas deferens; format: functional, tissue-based
Sequence of Delta-type opioid receptor (Mus musculus, UniProt P32300) (P32300 whole entry): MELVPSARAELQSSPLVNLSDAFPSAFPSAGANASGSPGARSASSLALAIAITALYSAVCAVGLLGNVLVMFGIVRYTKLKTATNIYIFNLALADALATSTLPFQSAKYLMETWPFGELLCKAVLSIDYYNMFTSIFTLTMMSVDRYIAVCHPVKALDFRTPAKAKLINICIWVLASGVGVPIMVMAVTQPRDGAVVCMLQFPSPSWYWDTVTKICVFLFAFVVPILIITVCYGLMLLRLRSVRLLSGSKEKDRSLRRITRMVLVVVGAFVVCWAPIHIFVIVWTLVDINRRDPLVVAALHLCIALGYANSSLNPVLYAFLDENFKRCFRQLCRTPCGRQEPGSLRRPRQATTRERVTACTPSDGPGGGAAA

Brain [6] = assay: Stability in rat brain membrane after 40 mins assessed as degradation by disulfide reductases; format: ADME, cell membranes
Brain [7] = assay: Stability in rat brain membrane upto 24 hrs assessed as degradation by disulfide reductases; format: ADME, cell membranes

Sequence of Mu-type opioid receptor (Rattus norvegicus, UniProt P33535) (P33535 whole entry): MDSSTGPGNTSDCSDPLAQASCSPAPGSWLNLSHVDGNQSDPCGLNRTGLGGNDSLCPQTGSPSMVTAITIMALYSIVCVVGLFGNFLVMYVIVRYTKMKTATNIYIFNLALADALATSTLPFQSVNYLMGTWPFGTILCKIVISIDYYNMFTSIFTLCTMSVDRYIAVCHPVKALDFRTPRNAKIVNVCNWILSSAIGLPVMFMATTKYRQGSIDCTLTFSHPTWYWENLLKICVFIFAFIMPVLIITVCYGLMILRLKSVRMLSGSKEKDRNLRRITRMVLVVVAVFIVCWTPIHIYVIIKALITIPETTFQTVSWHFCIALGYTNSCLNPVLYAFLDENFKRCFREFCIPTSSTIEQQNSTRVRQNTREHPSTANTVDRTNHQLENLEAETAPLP

SMILES	Ki (Mu-type opioid receptor [1]) [nM]	Ki [2] [nM]	Ki [3] [nM]	IC50 (Mu-type opioid receptor [4]) [nM]	IC50 [5] [nM]	Activity (Brain [6])	Stability (Brain [7])
NC(=O)[C@@H]1CCCC[C@@H](NC(=O)[C@@H](N)Cc2ccc(O)cc2)C(=O)NCC(=O)N[C@@H](Cc2ccccc2)C(=O)N1	2.34	5.87	309	1.02	3.19	Not Active	
NC(=O)[C@@H]1C/C=C\C[C@@H](NC(=O)[C@@H](N)Cc2ccc(O)cc2)C(=O)NCC(=O)N[C@@H](Cc2ccccc2)C(=O)N1	2.4	6.55	200	1.81	0.496	Not Active	
NC(=O)[C@H]1C/C=C\C[C@@H](NC(=O)[C@@H](N)Cc2ccc(O)cc2)C(=O)NCC(=O)N[C@@H](Cc2ccccc2)C(=O)N1	2.27	7.04	498	11.9	9.91		
NC(=O)[C@@H]1C/C=C/C[C@@H](NC(=O)[C@@H](N)Cc2ccc(O)cc2)C(=O)NCC(=O)N[C@@H](Cc2ccccc2)C(=O)N1	0.616	1.25	57.6	0.898	0.275	Not Active	
NC(=O)[C@@H]1CSSC[C@@H](NC(=O)[C@@H](N)Cc2ccc(O)cc2)C(=O)NCC(=O)N[C@@H](Cc2ccccc2)C(=O)N1			40.1			Not Active	Stable
NC(=O)[C@H]1C/C=C/C[C@@H](NC(=O)[C@@H](N)Cc2ccc(O)cc2)C(=O)NCC(=O)N[C@@H](Cc2ccccc2)C(=O)N1	1.05	1.92	30.4	5.63	4.38		
NC(=O)[C@H]1CCCC[C@@H](NC(=O)[C@@H](N)Cc2ccc(O)cc2)C(=O)NCC(=O)N[C@@H](Cc2ccccc2)C(=O)N1	1.17	3.34	71.5	11.2	3.64		
